This note sets out measurements from paper PMC3514016 (The international journal of biochemistry & cell biology, 2009).

The test has as its target Human CatB (human wild-type cathepsin B) (Homo sapiens, UniProt P07858, S194A). The following applies: read-out: Human CatB / Km; 37 °C; pH not stated for the Km assay.

Where a SMILES comes first, the peptide text is derived from it. The star is where a group is joined. AMC = Cc1cc(=O)oc2cc(N*)ccc12; Cbz = O=C(OCc1ccccc1)*

With `Cc1cc(=O)oc2cc(NC(=O)[C@H](CCCNC(=N)N)NC(=O)[C@H](CCCNC(=N)N)NC(=O)OCc3ccccc3)ccc12` [Z-Arg-Arg-AMC] (Cbz-Arg-Arg-{AMC}), the Km turned out to be 100 µM.

For `Cc1cc(=O)oc2cc(NC(=O)[C@H](CCCNC(=N)N)NC(=O)[C@H](Cc3ccccc3)NC(=O)OCc3ccccc3)ccc12` [Z-Phe-Arg-AMC] (Cbz-Phe-Arg-{AMC}), the Km is 47 µM.
